Results reported in US12030896B2, “PIKfyve inhibitors” (Mayo Foundation for Medical Education and Research, priority 2018, dated 2024).
Blank lines part the entries; values can stand above or below the compound they belong to.

Legend:
[1] = oral; cited from earlier work
[2] = cited from earlier work
IL12 and IL23 = conditions: myeloid cells; cited from earlier work
468 kinases = assay: Kinase selectivity panel (Treespot dendrogram); assay type: binding
Procedure: In contrast, 50 nM Apilimod inhibited two kinases to 1% or 10%, and 3 kinases to 35% of control. To examine non-specific binding at higher concentrations, Example 1, Example 3, and Apilimod were tested at 5000 nM. […] PIKfyve is represented at the bottom left of each dendrogram.

cells in culture = assay: Vacuolization activity in cells in culture; assay type: cell-based
Excerpt: (§1) As used herein the term “EC50 (μM)” refers to the μM concentration of a compound that is required for 50% activity in a vacuolization assay.
Example 2 is a biotinylated derivative of the compound of Example 1.

U251 = U251 Vacuolization Assay (24h); assay type: cell-based; conditions: Homo sapiens, U-251
Procedure: as §1
Example A—U251 Vacuolization Assay Data (24h) for Compounds of Examples 8-56

U251 glioblastoma cell = assay: Cell killing in combination with vemurafenib; assay type: cell-based, human; conditions: 10 μM vemurafenib, 0 μM Example 1, 72 hour
Procedure: A 25 mM stock of vemurafenib (obtained from Selleckchem) in DMSO was diluted to 2× the indicated concentration into the cell suspension immediately prior to plating the cell suspension onto the pre-diluted Example 1 or Example 3, to result in a final 1× concentration of both compounds.
See FIG. 13 for showing of U251 glioblastoma cell killing by Example 1 alone or in the presence of 10 μM vemurafenib over a 72 hour time course.

EC50 (U251): ≤ 1000 nM
Compound: Cc1ccc(Nc2nc(N/N=C/c3c[nH]c4ccccc34)nc(N3CCOCC3)n2)nc1 [Example 45, {4-[N′-(1H-Indol-3-ylmethylene)-hydrazino]-6-morpholin-4-yl-[1,3,5]triazin-2-yl}-(5-methyl-pyridin-2-yl)-amine]

EC50 (U251): ≤ 1000 nM
Compound: CS(=O)(=O)Nc1ccc(Nc2nc(N/N=C/c3c[nH]c4ccccc34)nc(N3CCOCC3)n2)cc1 [Example 46, (E)-N-(4-((4-(2-((1H-indol-3-yl)methylene)hydrazinyl)-6-morpholino-1,3,5-triazin-2-yl)amino)phenyl)methanesulfonamide]

EC50 (U251): ≤ 1000 nM
Compound: Cc1ccc(Nc2nc(N/N=C/c3c[nH]c4ccccc34)nc(N3CCc4ccccc4C3)n2)cc1 [Example 47, (E)-4-(2-((1H-Indol-3-yl)methylene)hydrazinyl)-6-(3,4-dihydroisoquinolin-2(1H)-yl)-N-(p-tolyl)-1,3,5-triazin-2-amine]

EC50 (U251): > 50000 nM
Compound: Cc1ccc(Nc2nc(N/N=C/c3c[nH]c4ccccc34)nc(N3CCOc4ccccc43)n2)cc1 [Example 48, (E)-4-(2-((1H-Indol-3-yl)methylene)hydrazinyl)-6-(2H-benzo[b][1,4]oxazin-4(3H)-yl)-N-(p-tolyl)-1,3,5-triazin-2-amine]

EC50 (U251): > 50000 nM
Compound: COC1CCN(c2nc(N/N=C/c3c[nH]c4ccccc34)nc(Nc3ccc(C)cc3)n2)CC1 [Example 49, (E)-4-(2-((1H-Indol-3-yl)methylene)hydrazinyl)-6-(4-methoxypiperidin-1-yl)-N-(p-tolyl)-1,3,5-triazin-2-amine]

EC50 (U251): ≤ 1000 nM
Compound: Cc1ccc(Nc2nc(N/N=C/c3c[nH]c4ccccc34)nc(N3CCOCC3C)n2)cc1 (centres unmarked) [Example 50, (E)-4-(2-((1H-Indol-3-yl)methylene)hydrazinyl)-6-(3-methylmorpholino)-N-(p-tolyl)-1,3,5-triazin-2-amine]

EC50 (U251): 1000 to 10000 nM
Compound: COCCN(c1nc(N/N=C/c2c[nH]c3ccccc23)nc(Nc2ccc(C)cc2)n1)C(C)C [Example 51, (E)-6-(2-((1H-Indol-3-yl)methylene)hydrazinyl)-N2-isopropyl-N2-(2-methoxyethyl)-N4-(p-tolyl)-1,3,5-triazine-2,4-diamine]

EC50 (U251): > 50000 nM
Compound: Cc1ccc(Nc2nc(N/N=C\c3coc4ccccc34)nc(N3CCOCC3)n2)cc1 [Example 53, 4-(2-(benzofuran-3-ylmethylene)hydrazinyl)-6-morpholino-N-(p-tolyl)-1,3,5-triazin-2-amine]

EC50 (U251): > 50000 nM
Compound: Cc1[nH]c2ccccc2c1/C=N/Nc1nc(Nc2ccc([N+](=O)[O-])cc2)nc(N2CCCCCC2)n1 [Example 56, (E)-4-(azepan-1-yl)-6-(2-((2-methyl-1H-indol-3-yl)methylene)hydrazinyl)-N-(4-nitrophenyl)-1,3,5-triazin-2-amine]

More lines, now with the values behind:

Compound: Cc1cccc(/C=N/Nc2cc(N3CCOCC3)nc(OCCc3ccccn3)n2)c1 [Apilimod, 3-Methylbenzaldehyde 2-[6-(4-Morpholinyl)-2-[2-(2-pyridinyl)ethoxy]-4-pyrimidinyl]hydrazine]
IFN-gamma production by ex vivo cells [1]: decreased | TH1 / TH2 responses [1]: suppressed TH1 but not TH2 responses | inflammatory histopathologic skin changes [1]: markedly reduced | dose limiting toxicity ([2]; headache, flushing, hypoesthesia, dizziness, paresthesia): 105 mg bid | mean improvement in PASI score ([2]; oral, 70 mg qd): 46% | patients with histologic improvement ([2]; oral, 70 mg qd): 47% | IL12 and IL23 expression in skin lesions ([2]; oral): significantly reduced | IL12 and IL23 production (IL12 and IL23): suppresses | number of kinases blocked to 1% of control (468 kinases; 50 nM, 468 kinases): two | number of kinases blocked to 10% of control (468 kinases; 50 nM, 468 kinases): two | number of kinases blocked to 35% of control (468 kinases; 50 nM, 468 kinases): 3 | number of kinases blocked to 1% activity level (468 kinases; 5000 nM): 4 | number of kinases blocked to 10% activity level (468 kinases; 5000 nM): 9 | number of kinases blocked to 35% activity level (468 kinases; 5000 nM): 15 | selectivity for PIKfyve (468 kinases; comparison of Example 1, Example 3 and apilimod): less specific

Compound: O=C(CCCC[C@@H]1SC[C@@H]2NC(=O)N[C@@H]21)Nc1ccc(Nc2nc(N/N=C/c3c[nH]c4ccccc34)nc(N3CCOCC3)n2)cc1 [Example 2, (E)-N-(4-((4-(2-((1H-indol-3-yl)methylene)hydrazinyl)-6-morpholino-1,3,5-triazin-2-yl)amino)phenyl)-5-(2-oxohexahydro-1H-thieno[3,4-d]imidazol-4-yl)pentanamide]
EC50 (cells in culture): 8 nM

Compound: Cc1ccc(Nc2nc(N/N=C/c3c[nH]c4ccccc34)nc(N3C4CCC3COC4)n2)cc1 [Example 52, (E)-4-(2-((1H-Indol-3-yl)methylene)hydrazinyl)-6-(3-oxa-8-azabicyclo[3.2.1]octan-8-yl)-N-(p-tolyl)-1,3,5-triazin-2-amine]
EC50 (U251): 1000 to 10000 nM

Compound: Cc1ccc(Nc2nc(NCCc3c[nH]c4ccccc34)nc(N3CCOCC3)n2)cc1 [Example 54, N2-(2-(1H-indol-3-yl)ethyl)-6-morpholino-N4-(p-tolyl)-1,3,5-triazine-2,4-diamine]
EC50 (U251): > 50000 nM

Compound: C(=N\Nc1nc(Nc2cccc3ccccc23)nc(N2CCOCC2)n1)/c1c[nH]c2ccccc12 [Example 55, (E)-4-(2-((1H-indol-3-yl)methylene)hydrazinyl)-6-morpholino-N-(naphthalen-1-yl)-1,3,5-triazin-2-amine]
EC50 (U251): ≤ 1000 nM

Compound: CCCS(=O)(=O)Nc1ccc(F)c(C(=O)c2c[nH]c3ncc(-c4ccc(Cl)cc4)cc23)c1F [vemurafenib, N-(3-(5-(4-chlorophenyl)-1H-pyrrolo[2,3-b]pyridine-3-carbonyl)-2,4-difluorophenyl)propane-1-sulfonamide, reference compound]
effect on cell killing, alone (U251 glioblastoma cell): little effect
